The source made the active and inactive calls. No rule for the calls is given here.
System: CCRIS mutagenicity, Ames/micronucleus/aberration tests
Experiment: CCRIS mutagenicity studies
[1] = Test System: AMES SALMONELLA TYPHIMURIUM, Strain/Indicator: TA98, Metabolic Activation: NONE, Method: PREINCUBATION
[2] = Test System: AMES SALMONELLA TYPHIMURIUM, Strain/Indicator: TA100, Metabolic Activation: NONE, Method: PREINCUBATION
[3] = Test System: AMES SALMONELLA TYPHIMURIUM, Strain/Indicator: TA1535, Metabolic Activation: NONE, Method: PREINCUBATION
[4] = Test System: AMES SALMONELLA TYPHIMURIUM, Strain/Indicator: TA1537, Metabolic Activation: NONE, Method: PREINCUBATION

CCCCCCCCc1ccc(Nc2ccc(CCCCCCCC)cc2)cc1
mutagenic call (End Point: IN VITRO CHROMOSOMAL ABERRATIONS, Test System: CHINESE HAMSTER LUNG CELLS (CHL), Metabolic Activation: NONE): inactive; negative | mutagenic call (End Point: IN VITRO CHROMOSOMAL ABERRATIONS, Test System: CHINESE HAMSTER LUNG CELLS (CHL), Metabolic Activation: RAT, LIVER, S-9, KC-400): inactive; negative | mutagenic call (End Point: IN VITRO CHROMOSOMAL ABERRATIONS, Test System: CHINESE HAMSTER OVARY CELLS (CHO), Metabolic Activation: NONE): inactive; negative | mutagenic call (End Point: IN VITRO CHROMOSOMAL ABERRATIONS, Test System: CHINESE HAMSTER OVARY CELLS (CHO), Metabolic Activation: RAT, LIVER, S-9, AROCLOR 1254): inactive; negative | mutagenic call (End Point: IN VITRO CHROMOSOMAL ABERRATIONS, Test System: CHO-LB CELLS, Metabolic Activation: NONE): inactive; negative | mutagenic call (End Point: IN VITRO CHROMOSOMAL ABERRATIONS, Test System: CHO-LB CELLS, Metabolic Activation: RAT, LIVER, S-9, AROCLOR 1254): inactive; negative | mutagenic call (Test System: AMES SALMONELLA TYPHIMURIUM, Strain/Indicator: TA97, Metabolic Activation: HAMSTER, LIVER, S-9, AROCLOR 1254 (10 OR 30%), Method: PREINCUBATION): inactive; negative | mutagenic call (Test System: AMES SALMONELLA TYPHIMURIUM, Strain/Indicator: TA97, Metabolic Activation: NONE, Method: PREINCUBATION): inactive; negative | mutagenic call (Test System: AMES SALMONELLA TYPHIMURIUM, Strain/Indicator: TA97, Metabolic Activation: RAT, LIVER, S-9, AROCLOR 1254 (10 OR 30%), Method: PREINCUBATION): inactive; negative | mutagenic call (Test System: AMES SALMONELLA TYPHIMURIUM, Strain/Indicator: TA98, Metabolic Activation: HAMSTER, LIVER, S-9, AROCLOR 1254 (10 OR 30%), Method: PREINCUBATION): inactive; negative | mutagenic call [1]: inactive; negative | mutagenic call (Test System: AMES SALMONELLA TYPHIMURIUM, Strain/Indicator: TA98, Metabolic Activation: RAT, LIVER, S-9, AROCLOR 1254 (10 OR 30%), Method: PREINCUBATION): inactive; negative | mutagenic call (Test System: AMES SALMONELLA TYPHIMURIUM, Strain/Indicator: TA100, Metabolic Activation: HAMSTER, LIVER, S-9, AROCLOR 1254 (10 OR 30%), Method: PREINCUBATION): inactive; negative | mutagenic call [2]: inactive; negative | mutagenic call (Test System: AMES SALMONELLA TYPHIMURIUM, Strain/Indicator: TA100, Metabolic Activation: RAT, LIVER, S-9, AROCLOR 1254 (10 OR 30%), Method: PREINCUBATION): inactive; negative | mutagenic call (Test System: AMES SALMONELLA TYPHIMURIUM, Strain/Indicator: TA1535, Metabolic Activation: HAMSTER, LIVER, S-9, AROCLOR 1254 (10 OR 30%), Method: PREINCUBATION): inactive; negative | mutagenic call [3]: inactive; negative | mutagenic call (Test System: AMES SALMONELLA TYPHIMURIUM, Strain/Indicator: TA1535, Metabolic Activation: RAT, LIVER, S-9, AROCLOR 1254 (10 OR 30%), Method: PREINCUBATION): inactive; negative | mutagenic call (Test System: AMES SALMONELLA TYPHIMURIUM, Strain/Indicator: TA1537, Metabolic Activation: HAMSTER, LIVER, S-9, AROCLOR 1254 (30%), Method: PREINCUBATION): inactive; negative | mutagenic call [4]: inactive; negative | mutagenic call (Test System: AMES SALMONELLA TYPHIMURIUM, Strain/Indicator: TA1537, Metabolic Activation: RAT, LIVER, S-9, AROCLOR 1254 (30%), Method: PREINCUBATION): inactive; negative

c1ccc2c(c1)-c1cc3ccccc3c3cc4ccccc4c-2c13
mutagenic call (Test System: AMES SALMONELLA TYPHIMURIUM, Strain/Indicator: TA100, Metabolic Activation: MOUSE, LIVER, S-9, 3-METHYLCHOLANTHRENE, Method: STANDARD PLATE): active; positive | mutagenic call (Test System: AMES SALMONELLA TYPHIMURIUM, Strain/Indicator: TA100, Metabolic Activation: RAT, LIVER, S-9, 3-METHYLCHOLANTHRENE, Method: STANDARD PLATE): active; positive | mutagenic call (Test System: HUMAN H1A1V2 CELLS, Strain/Indicator: TK LOCUS, Metabolic Activation: NONE, Method: SUSPENSION/PLATE): active; positive

CCCCOCCOP(=O)(OCCOCCCC)OCCOCCCC
mutagenic call (Test System: AMES SALMONELLA TYPHIMURIUM, Strain/Indicator: TA98, Metabolic Activation: HAMSTER, LIVER, S-9, AROCLOR 1254, Method: PREINCUBATION): inactive; negative | mutagenic call [1]: inactive; negative | mutagenic call (Test System: AMES SALMONELLA TYPHIMURIUM, Strain/Indicator: TA98, Metabolic Activation: RAT, LIVER, S-9, AROCLOR 1254, Method: PREINCUBATION): inactive; negative | mutagenic call (Test System: AMES SALMONELLA TYPHIMURIUM, Strain/Indicator: TA100, Metabolic Activation: HAMSTER, LIVER, S-9, AROCLOR 1254, Method: PREINCUBATION): inactive; negative | mutagenic call [2]: inactive; negative | mutagenic call (Test System: AMES SALMONELLA TYPHIMURIUM, Strain/Indicator: TA100, Metabolic Activation: RAT, LIVER, S-9, AROCLOR 1254, Method: PREINCUBATION): inactive; negative | mutagenic call (Test System: AMES SALMONELLA TYPHIMURIUM, Strain/Indicator: TA1535, Metabolic Activation: HAMSTER, LIVER, S-9, AROCLOR 1254, Method: PREINCUBATION): inactive; negative | mutagenic call [3]: inactive; negative | mutagenic call (Test System: AMES SALMONELLA TYPHIMURIUM, Strain/Indicator: TA1535, Metabolic Activation: RAT, LIVER, S-9, AROCLOR 1254, Method: PREINCUBATION): inactive; negative | mutagenic call (Test System: AMES SALMONELLA TYPHIMURIUM, Strain/Indicator: TA1537, Metabolic Activation: HAMSTER, LIVER, S-9, AROCLOR 1254, Method: PREINCUBATION): inactive; negative | mutagenic call [4]: inactive; negative | mutagenic call (Test System: AMES SALMONELLA TYPHIMURIUM, Strain/Indicator: TA1537, Metabolic Activation: RAT, LIVER, S-9, AROCLOR 1254, Method: PREINCUBATION): inactive; negative

O=C1C2(Cl)C3(Cl)C4(Cl)C(Cl)(Cl)C5(Cl)C3(Cl)C1(Cl)C5(Cl)C24Cl (stereo not drawn)
mutagenic call (End Point: IN VITRO CHROMOSOMAL ABERRATIONS, Test System: CHINESE HAMSTER OVARY CELLS, Metabolic Activation: NONE): inactive; negative | mutagenic call (End Point: IN VITRO CHROMOSOMAL ABERRATIONS, Test System: CHINESE HAMSTER OVARY CELLS, Metabolic Activation: RAT, LIVER, S-9, AROCLOR 1254): inactive; negative

C(COCC1CO1)OCC1CO1 (stereo not drawn)
mutagenic call (Test System: AMES SALMONELLA TYPHIMURIUM, Strain/Indicator: TA100, Metabolic Activation: NONE, Method: STANDARD PLATE): active; positive | mutagenic call (Test System: AMES SALMONELLA TYPHIMURIUM, Strain/Indicator: TA1535, Metabolic Activation: NONE, Method: STANDARD PLATE): active; positive

Cc1cc2cccc3ccc4c5ccccc5cc1c4c32
mutagenic call (Test System: AMES SALMONELLA TYPHIMURIUM, Strain/Indicator: TA100, Metabolic Activation: RAT, NADPH-FORTIFIED HOMOGENIZED HEPATOCYTES, AROCLOR 1254, Method: PREINCUBATION): active; positive

O=[N+]([O-])c1ccc2c(c1)Cc1cccc(O)c1-2
mutagenic call [1]: active; positive | mutagenic call (Test System: AMES SALMONELLA TYPHIMURIUM, Strain/Indicator: TA98, Metabolic Activation: S-9, Method: PREINCUBATION): active; positive

Source: PubChem BioAssay AID1259407 (Chemical Carcinogenesis Research Information System (CCRIS), 2018)
